Reference: ChEMBL document CHEMBL5661943, “ASAP - In vitro antiviral effect” (2024)
Values joined by “and” are separate entries in the source; they are usually repeats but may differ in a detail not shown here. Identical values can stand only once.

Legend:
[1] = test system: Zika virus; experiment: (§1) Functional CPE-based assay to measure dose dependent changes in antiviral-drug inhibitory efficacy against Zika virus MR766 in Vero E6 miRFP670 cells (cotreated with P-gp inhibitor, CP100356). Cells are treated with antiviral candidates that are serially diluted. EC50 is reported via analysis of MTS assay as a readout of CPE. The assay has been performed by KU Leuven.; assay type: organism-based, Chlorocebus sabaeus, Vero C1008; settings: Zika virus, Vero C1008
[2] = test system: dengue virus type 2; experiment: Functional assay to measure dose dependent changes in antiviral-drug inhibitory efficacy against Dengue virus type 2 New Guinea C in Vero E6 miRFP670 cells (cotreated with P-gp inhibitor, CP100356). Cells are treated with antiviral candidates that are serially diluted, following infection, cells are fixed. EC50 is reported via analysis of fluorescence intensity using high-content imager. The …; assay type: organism-based, Chlorocebus sabaeus, Vero C1008; settings: for EC90: P-gp concentration 500 nM, P-gp inhibitor CP100356
[3] = test system: Zika virus; experiment: EC50 is reported via analysis of immunofluorescence staining. The assay has been performed by Icahn School of Medicine at Mount Sinai.; assay type: functional, organism-based, Chlorocebus sabaeus, VeroE6/TMPRSS2; settings: Baseline response 0 %, Maximum response 100 %, P-gp concentration 2 uM, P-gp inhibitor Elacidar
[4] = test system: Zika virus; experiment: as §1, with “cells.” for “cells (cotreated with P-gp inhibitor, CP100356).”; assay type: organism-based, Chlorocebus sabaeus, Vero C1008; settings: Zika virus
[5] = test system: dengue virus type 2; experiment: (§2) Functional immunofluorescence assay to measure dose dependent changes in antiviral-drug inhibitory efficacy against Dengue virus type 2 Thailand/16681/84 in Vero E6/TMPRSS2 cells. Cells are treated with antiviral candidates that are serially diluted, following infection, cells are fixed. EC50 is reported via analysis of immunofluorescence staining. The assay has been performed by Icahn School of Medicine at Mount Sinai.; assay type: organism-based, Chlorocebus sabaeus
[6] = test system: dengue virus type 2; experiment: as §2, with “cells (cotreated with P-gp inhibitor, Elacridar).” for “cells.”; assay type: organism-based, Chlorocebus sabaeus, VeroE6/TMPRSS2; settings: for EC90: P-gp concentration 2 uM, P-gp inhibitor Elacidar
[7] = test system: dengue virus type 2; experiment: Functional CPE-based assay to measure dose dependent changes in antiviral-drug inhibitory efficacy against Dengue virus type 2 New Guinea C in Huh7 cells. Cells are treated with antiviral candidates that are serially diluted. EC50 is reported via analysis of MTT/MTS assay as a readout of CPE. The assay has been performed by National Institute of Allergy and Infectious Diseases.; assay type: organism-based, Homo sapiens; settings: Huh-7
[8] = test system: Zika virus; experiment: as §2, with “Zika” for “Dengue”, “PRVABC59” for “type 2 Thailand/16681/84”; assay type: organism-based, Chlorocebus sabaeus; settings: VeroE6/TMPRSS2

COc1cc(N[C@@H](C(=O)c2c[nH]c3ccc(OC(F)(F)F)cc23)c2ccc(Cl)cc2OC)cc(S(C)(=O)=O)c1
EC50 [1]: 0.726 µM | EC90 ([1]; Baseline response 0 %, Hill slope 17.55, Maximum measured 78.36 %, Maximum response 100 %, Minimum measured -4.751 %, P-gp concentration 500 nM, R squared 0.965, P-gp inhibitor CP100356): > 0.781 µM | EC90 ([2]; Baseline response 0 %, Hill slope 0.131, Maximum measured 1.754 %, Maximum response 100 %, Minimum measured 0.009 %, R squared 0.032): < 0.391 µM | EC90 ([2]; Baseline response 0 %, Hill slope 0.182, Maximum measured 0.608 %, Maximum response 100 %, Minimum measured 0.03 %, R squared 0.035): < 0.391 µM | EC90 ([2]; Baseline response 0 %, Hill slope 0.299, Maximum measured 0.369 %, Maximum response 100 %, Minimum measured 0.02 %, R squared 0.601): < 0.391 µM | EC90 ([2]; Baseline response 0 %, Hill slope 0.306, Maximum measured 1.238 %, Maximum response 100 %, Minimum measured 0.01 %, R squared 0.111): < 0.391 µM | EC90 ([2]; Baseline response 0 %, Hill slope 1.135, Maximum measured 0.49 %, Maximum response 100 %, Minimum measured 0.132 %, R squared 0.538): < 0.391 µM | EC50 ([2]; Dengue virus, Vero C1008): < 0.391 µM | EC90 ([2]; Dengue virus, Vero C1008, Maximum measured 0.33 %, Minimum measured 0.072 %): < 0.391 µM | EC90 ([2]; Dengue virus, Vero C1008, Baseline response 0 %, Hill slope 0.447, Maximum measured 0.846 %, Maximum response 100 %, Minimum measured 0.033 %, R squared 0.302): < 0.391 µM | EC90 ([3]; EC90 CI (lower) 0.002 uM, EC90 CI (upper) 0.172 uM, Hill slope -0.792, Maximum measured 161.955 %, Minimum measured 5.205 %, R squared 0.677): 4.83 µM | EC90 ([3]; EC90 CI (lower) 0.029 uM, EC90 CI (upper) 0.11 uM, Hill slope -0.824, Maximum measured 111.518 %, Minimum measured 7.6 %, R squared 0.806): > 10 µM | EC90 ([3]; EC90 CI (lower) 0.389 uM, EC90 CI (upper) 1.092 uM, Hill slope -2.761, Maximum measured 123.481 %, Minimum measured 14.219 %, R squared 0.888): 3.2 µM | EC90 ([3]; Hill slope -12.116, Maximum measured 127.26 %, Minimum measured 45.283 %, R squared 0.53): > 3.33 µM | EC90 ([3]; Hill slope -12.74, Maximum measured 124.12 %, Minimum measured 2.277 %, R squared 0.501): 3.79 µM | EC90 ([3]; Hill slope -15.757, Maximum measured 117.305 %, Minimum measured 4.138 %, R squared 0.906): 1.1 µM | EC90 ([3]; Hill slope -17.776, Maximum measured 116.903 %, Minimum measured 2.275 %, R squared 0.837): 3.17 µM | EC90 ([3]; Hill slope -18.67, Maximum measured 119.05 %, Minimum measured 1.241 %, R squared 0.846): 3.28 µM | EC90 ([4]; Vero C1008, Baseline response 0 %, Hill slope 9.978, Maximum measured 3.488 %, Maximum response 100 %, Minimum measured -3.611 %, R squared 0.038): > 50 µM | EC90 ([4]; Vero C1008, Baseline response 0 %, Hill slope 52.791, Maximum measured 104.354 %, Maximum response 100 %, Minimum measured 0.394 %, R squared 0.996): 0.452 µM | EC90 ([4]; Vero C1008, Baseline response 0 %, Hill slope -0.752, Maximum measured 14.519 %, Maximum response 100 %, Minimum measured -4.788 %, R squared 0.067): < 0.391 µM | EC90 ([4]; Vero C1008, Baseline response 0 %, Hill slope -0.757, Maximum measured 74.834 %, Maximum response 100 %, Minimum measured -5.889 %, R squared 0.129): < 0.391 µM | EC90 ([4]; Vero C1008, Baseline response 0 %, Hill slope -0.835, Maximum measured 99.922 %, Maximum response 100 %, Minimum measured -10.847 %, R squared 0.106): < 0.391 µM | EC90 ([4]; Vero C1008, Maximum measured 8.337 %, Minimum measured -6.427 %): > 50 µM | EC90 ([4]; Vero C1008, Baseline response 0 %, EC90 CI (lower) 10.077 uM, EC90 CI (upper) 13.839 uM, Hill slope 6.588, Maximum measured 92.835 %, Maximum response 100 %, Minimum measured -3.07 %, R squared 0.987): 11.8 µM | EC50 ([5]; VeroE6/TMPRSS2): < 0.005 µM | EC90 ([5]; VeroE6/TMPRSS2, Baseline response 0 %, Hill slope -0.076, Maximum measured 4.343 %, Maximum response 100 %, Minimum measured 1.659 %, R squared 0.062): < 0.005 µM | EC90 ([6]; Baseline response 0 %, EC90 CI (lower) 0.626 uM, EC90 CI (upper) 1511.53 uM, Hill slope 3.662, Maximum measured 12.805 %, Maximum response 100 %, Minimum measured 0.049 %, R squared 0.652): 9.27 µM | EC90 ([6]; Baseline response 0 %, EC90 CI (lower) […] uM, EC90 CI (upper) […] uM, Hill slope -1.863, Maximum measured 115.571 %, Maximum response 100 %, Minimum measured 6.648 %, R squared 0.785): 0.061 µM | EC90 ([6]; Baseline response 0 %, Hill slope 1.613, Maximum measured 7.031 %, Maximum response 100 %, Minimum measured 0.609 %, R squared 0.305): < 0.005 µM | EC90 ([6]; Baseline response 0 %, Hill slope 2.619, Maximum measured 1.603 %, Maximum response 100 %, Minimum measured 0.015 %, R squared 0.655): < 0.005 µM | EC90 ([6]; Baseline response 0 %, Hill slope 2.624, Maximum measured 9.128 %, Maximum response 100 %, Minimum measured 0.482 %, R squared 0.941): < 0.005 µM | EC90 ([6]; Baseline response 0 %, Hill slope -0.067, Maximum measured 1.374 %, Maximum response 100 %, Minimum measured 0.665 %, R squared 0.06): < 0.005 µM | EC90 ([6]; Baseline response 0 %, Hill slope -0.101, Maximum measured 7.568 %, Maximum response 100 %, Minimum measured 3.136 %, R squared 0.228): < 0.005 µM | EC90 ([6]; Dengue virus, VeroE6/TMPRSS2, Maximum measured 1.671 %, Minimum measured 0.643 %): < 0.005 µM | EC50 ([6]; veroe6/tmprss2): < 0.005 µM and 0.019 µM | EC50 [7]: < 0.01 µM | EC50 [8]: 0.546 µM | EC90 [8]: 2.79 µM
